Literature values in US9725402B2, “Nitroso compounds as nitroxyl donors and methods of use thereof” (priority 2008, dated 2017).

Key:
pheochromocytoma = conditions: subcutaneous xenograft, dose nontoxic to nude mice
[1] = system: cultured breast cancer cells
breast cancer cells = conditions: mouse xenograft model
[2] = system: myocardial ischemia/reperfusion injury; conditions: administered during ischemia and 5 minutes prior to reperfusion, anesthetized rabbits

In the case of O=S(=O)(NO)c1ccccc1 [PA, N-hydroxybenzenesulfonamide], the “pH at which compound is a nitroxyl donor” value (nitroxyl donor only at high pH) is listed as over 9 and the “species donated under physiological conditions” value (physiological conditions, oxidative pathway) is listed as “nitric oxide donor”.

In the case of [Na+].[Na+].[O-][N+]([O-])=NO [Angeli's salt, sodium α-oxyhyponitrite], the “toxicity to cancer cells” value (cancer cells; pH 7.4) is listed as “no toxicity”, the “cytotoxicity to cancer cells” value (cancer cells; weakly acidic solutions) is listed as “strong cytotoxicity” and the tumor growth (pheochromocytoma) is listed as “inhibit tumor growth”. The “proliferation of cultured breast cancer cells” value [1] was “inhibits the proliferation”, the tumor mass (breast cancer cells) was “decreases tumor mass” and the myocardial ischemia/reperfusion injury [2] was “increased myocardial ischemia/reperfusion injury”.
